One experiment has as its system 2B4/MCL-1. Briefly: caspase activation in 2B4/MCL-1 versus 2B4/BCL-2 cells, late-stage follow-up, selectivity assay for MCL1-BIM inhibitor project, cell-based, fluorescence, assay provider data (AID 493062). The conditions noted are these: 2B4/MCL-1 caspase activation fluorescence.
A further experiment concerns 2B4/BCL-2. The experiment is described as above. The conditions noted are these: 2B4/MCL-1 caspase activation fluorescence.

The structures appear in SMILES notation.

As usually defined, the EC50 is the concentration needed to bring the measured effect to its halfway point. Read a high EC50 as weaker potency. Regarding `COc1ccc(CCNC(=O)c2cc(-c3ccco3)nc3ccccc23)cc1`, the EC50 in the experiment on 2B4/MCL-1 and in the experiment with 2B4/BCL-2 was over 25 µM in each case.
In the case of `COc1ccc(NC(=O)c2cc(-c3ccco3)nc3ccccc23)cc1S(=O)(=O)N1CCOCC1`, the EC50 in the experiment on 2B4/MCL-1 and with 2B4/BCL-2 was over 25 µM in each case.
Regarding `CCN(CC)C(=O)COc1ccc2c(-c3ccc(OC)cc3)cc(=O)oc2c1C`, the EC50 with 2B4/MCL-1 and with 2B4/BCL-2 was over 25 µM in each case.
As for `COc1ccc(Cc2nnc(NC(=O)Cc3ccc(C)cc3)s2)cc1OC`, the EC50 in the experiment with 2B4/MCL-1 and with 2B4/BCL-2 was over 25 µM each time.
As to `CCCCn1c(N)c(N(CC(C)C)C(=O)c2cc(-c3ccco3)nc3ccccc23)c(=O)[nH]c1=O`, the EC50 with 2B4/MCL-1 and with 2B4/BCL-2 was over 25 µM throughout.
Turning to `CCN(CC)C(=O)COc1ccc2c(-c3ccc(OC)cc3)cc(=O)oc2c1`, the EC50 in the experiment on 2B4/MCL-1 and with 2B4/BCL-2 was over 25 µM throughout.
Consider `COc1ccc(NC(=O)c2cc(-c3ccc(C)o3)nc3ccccc23)cc1OC`, for which the EC50 in the experiment with 2B4/MCL-1 and in the experiment on 2B4/BCL-2 was over 25 µM each time.
Regarding `Cc1cccc(NC(=O)c2cc(-c3ccco3)nc3ccccc23)n1`, the EC50 in the experiment with 2B4/MCL-1 and with 2B4/BCL-2 was over 25 µM each time.
Consider `Cc1ccnc(NC(=O)c2cc(-c3ccc(C)o3)nc3ccccc23)c1`, for which the 50% effective concentration (EC50) in the experiment with 2B4/MCL-1 and in the experiment on 2B4/BCL-2 was 40 µM in each case.
Regarding `CCN1CCN(C(=O)c2cc(-c3ccco3)nc3ccccc23)CC1`, the EC50 in the experiment with 2B4/MCL-1 and in the experiment on 2B4/BCL-2 was over 25 µM throughout.
In the case of `COc1cccc(NC(=O)CN(C)C(=O)c2cc(-c3ccc(C)o3)nc3ccccc23)c1`, the EC50 in the experiment with 2B4/MCL-1 and in the experiment with 2B4/BCL-2 was over 25 µM each time.
As to `CCCCn1c(N)c(N(CCOC)C(=O)c2cc(-c3ccco3)nc3ccccc23)c(=O)[nH]c1=O`, the EC50 in the experiment with 2B4/MCL-1 and in the experiment with 2B4/BCL-2 was over 25 µM throughout.
On to `COc1ccc(NC(=O)c2cc(-c3ccco3)nc3ccccc23)cn1`, for which the EC50 in the experiment with 2B4/MCL-1 and with 2B4/BCL-2 was over 25 µM throughout.
Turning to `COc1ccc(Cc2nnc(NC(=O)Cc3sc(=S)[nH]c3C)s2)cc1OC`, the EC50 in the experiment on 2B4/MCL-1 and in the experiment with 2B4/BCL-2 was over 25 µM each time.
`COc1ccc(Cc2nnc(NC(=O)Cc3ccc(-c4ccccc4)cc3)s2)cc1OC`: the EC50 with 2B4/MCL-1 and in the experiment on 2B4/BCL-2 was over 25 µM in each case.
With `CCN(CC)CCNC(=O)c1cc(-c2ccco2)nc2ccccc12`, the EC50 in the experiment on 2B4/MCL-1 and with 2B4/BCL-2 was over 25 µM each time.
`Cc1ccc(NC(=O)c2cc(-c3ccc(C)o3)nc3ccccc23)nc1`: the EC50 with 2B4/MCL-1 and in the experiment on 2B4/BCL-2 was over 25 µM throughout.
`COc1cccc(NC(=O)c2cc(-c3ccco3)nc3ccccc23)c1`: the EC50 in the experiment on 2B4/MCL-1 and with 2B4/BCL-2 was over 25 µM each time.
With `COc1ccc(NC(=O)c2cc(-c3ccc(C)o3)nc3ccccc23)cc1`, the EC50 with 2B4/MCL-1 and with 2B4/BCL-2 was over 25 µM each time.
As for `Cc1ccc(-c2cc(C(=O)N3CC(C)OC(C)C3)c3ccccc3n2)o1` (stereo not given), the EC50 in the experiment on 2B4/MCL-1 and in the experiment on 2B4/BCL-2 was over 25 µM in each case.
With `COc1ccc(Cc2nnc(NC(=O)Cc3cccs3)s2)cc1`, the EC50 with 2B4/MCL-1 and with 2B4/BCL-2 was over 25 µM in each case.
`Cc1nnc(NC(=O)c2cc(-c3ccco3)nc3ccccc23)s1`: the EC50 with 2B4/MCL-1 and with 2B4/BCL-2 was over 25 µM each time.
As to `COc1ccccc1CC(=O)Nc1nnc(Cc2ccc(OC)c(OC)c2)s1`, the EC50 in the experiment with 2B4/MCL-1 and in the experiment on 2B4/BCL-2 was over 25 µM throughout.
In the case of `Cc1ccc(-c2cc(C(=O)N3CCN(c4ncccn4)CC3)c3cc(Br)ccc3n2)o1`, the EC50 in the experiment with 2B4/MCL-1 and with 2B4/BCL-2 was over 25 µM throughout.
Turning to `CCCCN(C(=O)c1cc(-c2ccco2)nc2ccccc12)c1c(N)n(CCCC)c(=O)[nH]c1=O`, the EC50 in the experiment with 2B4/MCL-1 and with 2B4/BCL-2 was over 25 µM in each case.
In the case of `CCN(CC)C(=O)COc1ccc2c(-c3ccccc3)cc(=O)oc2c1`, the EC50 in the experiment with 2B4/MCL-1 and with 2B4/BCL-2 was over 25 µM in each case.
`CCCN(C(=O)c1cc(-c2ccco2)nc2ccccc12)c1c(N)n(Cc2ccccc2)c(=O)[nH]c1=O`: the EC50 with 2B4/MCL-1 and in the experiment on 2B4/BCL-2 was over 25 µM in each case.
Regarding `CCOc1cc(N2CCOCC2)c(OCC)cc1NC(=O)c1cc(-c2ccco2)nc2ccccc12`, the EC50 in the experiment with 2B4/MCL-1 and with 2B4/BCL-2 was over 25 µM each time.
In the case of `Cc1cccc(NC(=O)c2cc(-c3ccc(C)o3)nc3ccccc23)n1`, the EC50 with 2B4/MCL-1 was found to be 40 µM; with 2B4/BCL-2, 25 µM.
The like results for `NS(=O)(=O)c1ccc(CCNC(=O)c2cc(-c3ccco3)nc3ccccc23)cc1` were, in that order, over 25 µM and over 25 µM.
On the same counts, the results for `O=C(Nc1nccs1)c1cc(-c2ccco2)nc2ccccc12` are over 25 µM and over 25 µM.
The like results for `O=C(CCn1nnc2ccccc21)Nc1nnc(Cc2ccccc2)s1` were, in that order, over 25 µM and over 25 µM.
Turning to `COc1ccc(Cc2nnc(NC(=O)Cc3ccc(Oc4ccccc4)cc3)s2)cc1OC`, the EC50 in the experiment with 2B4/MCL-1 was determined as 4 µM; with 2B4/BCL-2 it was 3.6 µM.
On the same counts, the results for `Cc1csc(NC(=O)c2cc(-c3ccco3)nc3ccccc23)n1` are over 25 µM and over 25 µM.
In the case of `O=C(c1cc(-c2ccco2)nc2ccccc12)N1CCN(Cc2ccccc2)CC1`, the EC50 in the experiment with 2B4/MCL-1 and in the experiment with 2B4/BCL-2 was over 25 µM throughout.

The values are drawn from PubChem BioAssay AID493062 (The Scripps Research Institute Molecular Screening Center, 2011).
